The test system of assay [1] is liver cancer cell line HepG2 (EpCAM). Kind of assay: FACS analysis of EpCAM-expressing cells. Format: cell-based, human. The settings on record: 0.5 μM 5-FU, 50 μM IC-2, two days, DMSO 76.2%. The protocol: (§1) A liver cancer cell line HepG2 was seeded at 1.5×10^6 cells/dish on 10-cm dishes. Next, the cells were cultured at 37° C. and 5% CO2. After 24 hours, 1% DSMO, 0.5 μM 5-FU, or 50 μM IC-2 was added thereto and the cells were further incubated. Then, the cells were harvested at two days after the chemical treatment. Meanwhile, the cells were blocked in 0.5% BSA/0.5% FBS/2 mM EDTA/PBS. Subsequently, 0.3 μL of an anti-human EpCAM monoclonal antibody (Cell Signaling Technology Inc., Danvers, Mass., USA) was added to 500 μL of a cell suspension and the resulting mixture was resuspended and incubated at 4° C. for 10 min to carry out a primary antibody reaction. After the primary antibody reaction, the cells were washed 3 times with 1 mL of PBS. After 1.0 μg of an Alexa 488-labeled goat anti-mouse IgG antibody (Life Technologies Corp., Carlsbad, Calif., USA) was added, the mixture was resuspended and a secondary antibody reaction was performed in a dark room for 10 min at 4° C. Thereafter, the cells were washed twice with 5% FBS/2 mM EDTA/PBS and once with 5% FBS/2 mM EDTA/DEME. Next, the cells were resuspended in 500 μL of 5% FBS/2 mM EDTA/PBS. Then, 1 μg/mL of propidium iodide was added thereto. After that, the mixture was made to pass through a tube with a 40-μm mesh filter. Finally, a Beckman Coulter-MoFlo XDP was used to analyze EpCAM-expressing cells.
In general terms: Flow cytometry measures light scatter and fluorescence of single cells or particles in a stream.

The test system of assay [2] is liver cancer cell line HepG2 (CD133). Kind of assay: FACS analysis of CD133-expressing cells. To be noted: 0.5 μM 5-FU, 50 μM IC-2, two days, DMSO 57.1%. Format: cell-based, human. The method, then:
as §1, with “50” for “0.3”, “CD133” for “EpCAM”, “(Miltenyi Biotec)” for “(Cell Signaling Technology Inc., Danvers, Mass., USA)”, “CD133-expressing” for “EpCAM-expressing”

Another assay relates to CD44^high DLD-1 cells. Kind of assay: Inhibitory effect on cancer stem cells in colon cancer (CD44 FACS). To be noted: IC-2 50 μM, 5-FU 0.5, 5 μM, 48 hours, vs control. Format: cell-based, human. The method, then: First, 1×10^6 DLD-1 cells were seeded on a 10-cm dish. After 24 hours, the cells were treated with 5-FU (0.5, 5 μM) or IC-2 (50 μM). After additional 48 hours, the cells were harvested. An anti-human CD44 antibody (Abcam Ltd., Cambridge, UK) was used as a primary antibody and an Alexa 488-labeled goat anti-mouse IgG antibody (Life Technologies Corp., Carlsbad, Calif., USA) was then used. After that, analysis was performed by using a MoFlo XDP (Beckman Coulter Inc., Fullerton, Calif.).

Another assay relates to Wnt/β-catenin signal. Briefly: Luciferase assay in HuH7 cells stably expressing pTCF4-CMVpro-Luc. Format: cell-based. To be noted: HuH7 reporter cells; two days after treatment. The method, then:
First, 30 μg of a pTCF4-CMVpro-Luc was added to 5×10^6 HuH7 cells and the plasmid was introduced using a Cellject Pro (Thermo, Massachusetts, USA) (at 250 V, 1500 μF). Twenty-four hours after the gene introduction, 2 μg/mL of puromycin was added. Then, the cells were selected while a medium was changed every 3 to 5 days. It was observed that colonies of the pTCF4-CMVpro-Luc-containing HuH7 cells were formed at 20 days after initiation of the selection. A cloning ring, which was manufactured such that an end portion of a blue tip was cut, (the bottom edge of the cloning ring was provided with vaseline), was then used to surround one of the colonies formed. Subsequently, 30 μL of a 0.25% Trypsin/1 mM EDTA solution, which was prepared by diluting a stock solution 5-fold with PBS, was added to detach and collect the cells. […]
Next, a luciferase assay was conducted. […] Subsequently, 10 μL of the cell lysate prepared by using PLB in the 24-well plate was added to the tube, and the luciferase activity was measured by using a MiniLumat LB 9506 (Berthold Technologies, Bad Wildbad, German).
First, the HuH7 cells that were at 70 to 90% confluency and stably expressed the pTCF4-CMVpro-Luc were collected, and the 1×10^4 cells were seeded in each well of a 96-well plate (FALCON). […] Then, a fluorescence plate reader Infinite F500 (TECAN, Zurich, Switzerland) was used to measure luciferase activity.

Take `O=c1[nH]cc(F)c(=O)[nH]1` [5-FU, reference compound]: the “proportion of the EpCAM-expressing cells” value in assay [1] is 81.4%. For the same molecule, the “proportion of the CD133-expressing cells” value in assay [2] was determined as 33.3%. For the same molecule, the “proportion of CD44^high cells” value in the assay on CD44^high DLD-1 cells was “rather increased the proportion”. Besides, the “inhibitory effect on a Wnt/β-catenin signal (luciferase activity)” value in the assay on Wnt/β-catenin signal was “exerted no inhibitory effect”.

In the case of `O=C1[C@H](Cc2ccccc2)N2C(=O)CCN(C(=O)NCc3ccccc3)[C@H]2CN1Cc1cccc2ccccc12` [IC-2], in assay [1], the “proportion of the EpCAM-expressing cells” value worked out at 51.1%. The “proportion of the CD133-expressing cells” value in assay [2] turned out to be 1.45%. In addition, in the assay with CD44^high DLD-1 cells, the “proportion of CD44^high cells” value is “significantly decreased the proportion of CD44^high cells”. Further, in the assay on Wnt/β-catenin signal, the “inhibitory effect on a Wnt/β-catenin signal (luciferase activity)” value was “exerted an inhibitory effect”.
